Measured values published in ChEMBL document CHEMBL1201862, “PubChem BioAssay data set” (2004).
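Briefly, cells in 96-well plates were exposed to five compound concentrations for 48 h, and endpoints were estimated by linear interpolation. GI50 is the concentration that inhibits growth by half.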 The source made the active and inactive calls. Rule as the data show it: active = GI50 up to about 1.1 µM and inactive = higher.

What was measured:
Assay in all cases: NCI tumour cell line growth inhibition, 48 h
[1] = test system: SR
[2] = test system: M14
[3] = test system: SK-OV-3
[4] = test system: NCI-H522
[5] = test system: A549
[6] = test system: RPMI-8226
[7] = test system: SK-MEL-28
[8] = test system: COLO 205
[9] = test system: SNB-75
[10] = test system: ACHN
[11] = test system: NCI/ADR-RES
[12] = test system: Hs-578T
[13] = test system: HCT-116
[14] = test system: BT-549
[15] = test system: NCI-H226
[16] = test system: T47D
[17] = test system: SN12C
[18] = test system: SF-295
[19] = test system: TK-10
[20] = test system: HT-29

Measured: GI50

Nc1nncc2[nH]cnc12
inactive: [1] > 100 µM | [2] 35.2 µM | [3] 41.5 µM | [4] > 100 µM | [5] 44.7 µM | [6] 14.4 µM | [7] > 100 µM | [8] 24.2 µM | [9] > 56.9 µM | [10] 50.1 µM | [11] 94 µM | [12] > 78.7 µM | [13] 36.6 µM | [14] 26.9 µM | [15] > 100 µM | [16] > 75.9 µM | [17] > 79.4 µM | [18] 42.8 µM | [19] > 50.1 µM | [20] 39.4 µM
